Molecules are shown by their SMILES.

The term melting point denotes the temperature of the solid-liquid transition.

In turn, `CC(C)C(NC(=O)N(C)Cc1ccccn1)C(=O)N(C(=O)C(NC(=O)N(C)Cc1nccs1)C(C)C)C(Cc1ccccc1)C(O)CCCc1ccccc1` (stereo not drawn) returned a melting point of 158 to 160 °C.

For the compound `COC(=O)c1ccc(-c2nnc(CSCCCCOc3ccccc3)o2)cc1`, the melting point lay in the range of 98 to 105 °C.

As to `CCOC(=O)C(Cl)=Cc1cc(-n2ncc(C(F)(F)F)cc2=O)ccc1Cl`, the melting point lay in the range of 98 to 100 °C.

Take `CC(C)CC(NC(=O)C(Cc1c[nH]c2ccccc12)NC(=O)OC(C)(C)C)C(=O)NCCC(=O)CCl` (stereo not drawn): the melting point lay in the range of 79 to 81 °C.

Turning to `CC(C)OC(=O)Nc1ccc(Cl)c(C(=O)OC(C)C)c1`, the melting point lay in the range of 108 to 109 °C.

The compound `Cc1cc(NS(=O)(=O)c2ccccc2)cnc1CCCC(=O)O` gave a melting point of 169 to 179 °C.

As for `COc1cc(CCCC2OCCO2)ccc1OCc1nc(-c2ccccc2)oc1C`, the melting point is 74 to 75 °C.

`COc1cc(OC)nc(NC(=O)NS(=O)(=O)c2cccc3c2S(=O)(=O)N(C)C3)n1` came in with a melting point of 229 to 231 °C.

`CCNCC(=O)Nc1cccc2c1C(=O)c1c-2n[nH]c1-c1ccc(OC)cc1` registered a melting point of 250 °C.

Turning to `Cc1ccc(N2CCN(CCCc3ccc(C4CCC(=O)N4)cc3)CC2)cc1` (stereo not drawn), the melting point fell in the range of 143 to 145 °C.

For `CCC1C(=O)N(CC)CCc2c1ccc(Nc1ncc(Cl)c(Nc3ccccc3C(=O)NC)n1)c2OC` (stereo not drawn), the melting point lay in the range of 157 to 158 °C.

Consider `O=C(O)CN1C(=O)C(=Cc2ccc(OCc3ccc(C(F)(F)F)cc3)c(OCc3ccccc3)c2)SC1=S`, for which the melting point fell in the range of 257 to 263 °C.

On to `CC(c1ccccc1)N1CC(C(C(N)=O)(c2ccccc2)c2ccccc2)C1` (stereo not drawn), for which the melting point was 153 to 154 °C.

With `CC1(C)CCC(C)(C)c2cc(-c3nnc(-c4ccc(C(N)=O)cc4)o3)ccc21`, the melting point was in the range of 272 to 274 °C.

Compound `O=C(CCC(=O)N1CCCCC1)c1ccccc1` yielded a melting point of 52 to 54 °C.

Take `CC(=O)C(=[N+]=[N-])C(=O)OCc1ccc([N+](=O)[O-])cc1`: the melting point is 132 °C.

`O=C(O)C1COc2ccc(Cl)c(Cl)c2O1` (stereo not drawn) came in with a melting point of 144 to 148 °C.

The compound `CSc1ccc2c(c1)C(Cl)c1ccccc1C=C2` (stereo not drawn) displayed a melting point of 135 to 138 °C.

On to `CC(C)(C)C(C)(O)C(CCOc1ccccc1)n1cncn1` (stereo not drawn), for which the melting point was in the range of 118 to 120 °C.

`CC(=O)c1sc(Nc2cc[nH]n2)nc1C` gave a melting point of 224 to 227 °C.

Consider `Cc1c(Cc2ccc(C(=O)O)s2)n(S(=O)(=O)c2cccc(C(C)(C)C)c2)c2ccc(C(F)(F)F)cc12`, for which the melting point is 171 °C.

Consider `CC(C)(C)[Si](C)(C)OCC1(CO[Si](C)(C)C(C)(C)C)c2ccccc2-c2ccccc21`, for which the melting point worked out at 84 °C.

The compound `COC(=O)c1c(C)n(-c2ccc(Cl)cc2)c(C)cc1=O` had a melting point of 189 to 190 °C.

On to `CN(C)CCOC1(O)C=CC2=NC(C(=O)N3CC(CCl)c4c3ccc3ncccc43)=CC2=C1` (stereo not drawn), for which the melting point was in the range of 209 to 215 °C.

Regarding `CCOC(=O)OCC(I)=C(I)I`, the melting point was in the range of 49 to 50 °C.

For the compound `N#Cc1ccc(OCCCCCCOc2ccc(-c3cc4ccc(C#N)cc4o3)cc2)cc1`, the melting point is 159 to 160 °C.

Consider `N#Cc1ccccc1COc1cccc(Cl)c1`, for which the melting point was 56 °C.

In the case of `Cc1ccc2c(c1)C(C)(Cl)C(=S)N2` (stereo not drawn), the melting point is 185 to 187 °C.

`O=C(O)[C@H](Cc1ccc(C(F)(F)F)cc1)[C@@H](O)c1ccoc1` (racemic) came in with a melting point of 104 to 105 °C.

With `CC(C)c1nn(C(=O)NC(C)(C)CCc2ccccc2Cl)c(=O)n1N`, the melting point came to 159 °C.

`O=C(Nc1ccccc1)c1cc([N+](=O)[O-])ccc1Cl` had a melting point of 155 to 156 °C.

Compound `COc1ccc2c(-c3ccccc3)nc(=NO)c(=O)n(C)c2c1` returned a melting point of 206 to 207 °C.

The compound `O=c1c(-c2ccccc2)c(CNc2ncnc3[nH]cnc23)oc2ccc(Br)cc12` came in with a melting point of 151 to 154 °C.

For `Cc1c(-c2ccccc2)c(N2CC[C@H](N(C)C)C2)c2oc(N3CC(CC(=O)O)C3)nc2c1C#N`, the melting point fell in the range of 125 to 128 °C.

With `Cn1c(=O)n(O)c(=O)c2cc(F)c(F)cc21`, the melting point was 239 to 241 °C.

`COc1c2c(c(OC)c(OC)c1OC)CC(CCCCCCCCN1C(=O)c3ccccc3C1=O)C2` had a melting point of 64 to 65 °C.

Consider `CCCCn1cnc2c(OCc3cccs3)nc(Nc3ccc(OCC)nc3)nc21`, for which the melting point was in the range of 112 to 114 °C.

Turning to `CCCc1nc(C(O)C(C)(C)C)c(C(N)=O)n1Cc1ccc(-c2ccccc2C(=O)C(=O)O)cc1` (stereo not drawn), the melting point is 128 to 130 °C.

On to `FC(F)(F)COc1ccc(Cc2ccncc2)cc1`, for which the melting point was 51 to 53 °C.

Regarding `CS(=O)(=O)NCCCC(c1cc(F)ccc1F)S(=O)(=O)c1ccc(Cl)cc1` (stereo not drawn), the melting point was determined as 128 °C.

`Cc1c(C)c2c(c(C)c1OCc1ccc(S(C)(=O)=O)cc1)C(c1ccc(C(C)C)cc1)C(C)(C)O2` (stereo not drawn) had a melting point of 161 to 162 °C.

As to `CN1C(=O)C(NC(=O)C(CC2CC2)C2(C(N)=O)CC=CC2)N=C(c2ccccc2)c2ccccc21` (stereo not drawn), the melting point is 238 to 240 °C.

Turning to `O=C1c2cc(OC(F)F)ccc2CN1c1ccc2c(c1)CCC2`, the melting point lay within 137 to 139 °C.

`Cc1cc(Oc2cccc(C(F)(F)F)c2)nn1C(=O)Nc1ccc(Cl)cc1` showed a melting point of 73 to 74 °C.

`COC(=O)c1sc(OC)c(Br)c1O` displayed a melting point of 107 to 109 °C.

Turning to `CCOC(=O)COc1ccc(C=NCCN=Cc2ccc(OCC(=O)OCC)cc2O)c(O)c1`, the melting point is 104 to 106 °C.

Turning to `N#Cc1nn(-c2c(Cl)cc(C(F)(F)F)cc2Cl)cc1C1CC1(Br)Br` (stereo not drawn), the melting point was in the range of 121 to 123 °C.

On to `O=C1Cc2cc(F)c(N3C(=O)C4=C(CCCC4)C3=O)cc2N1`, for which the melting point lay in the range of 234 to 236 °C.

On to `O=C(CN1CCC(CCc2ccccc2)CC1)Nc1ccc2c(c1)OCC(=O)N2`, for which the melting point lay within 200 to 203 °C.

For the compound `N#CCOc1cccc2c1c1cccc(F)c1n2Cc1ccccc1`, the melting point was 134 °C.

Regarding `COc1ccccc1N1CCN(CCCOc2ccc(-c3cn4cccnc4n3)cc2)CC1`, the melting point lay in the range of 156 to 158 °C.

The compound `O=C(O)CCCCCN1C(=O)c2cccc([N+](=O)[O-])c2C1=O` had a melting point of 144 °C.

`CC(C)(C)ONc1ccccc1`: the melting point lay in the range of 67 to 69 °C.

As for `CSCCCNC(=O)N(O)C[C@@H]1C[C@H]1c1ccccc1` (relative stereo), the melting point lay within 103 to 104 °C.

Regarding `Cc1cc2c(cc1C#Cc1ccc(C(=O)O)cc1)C(C)(C)CCC2`, the melting point was in the range of 203 to 206 °C.

`CC(C)(C)OC(=O)N[C@@H](CCC(=O)OCc1ccccc1)C(=O)OCc1ccccc1` registered a melting point of 73 to 76 °C.

In the case of `Cc1ccc(C(=O)C2=C(O)C(=O)N(c3ccc(C)nn3)C2c2ccc(C(C)C)cc2)cc1` (stereo not drawn), the melting point worked out at 279 °C.

`Nc1ccc(OC(F)(F)F)cc1CO` displayed a melting point of 75.9 to 77.6 °C.

As to `Cc1cc(Br)cc(C)c1NC(=O)Nc1ccc(-n2nc(C(F)(F)F)cc2C(F)(F)F)cc1`, the melting point was greater than 230 °C.

For `O=C(O)[C@@H](Cl)[C@H](O)c1ccccc1`, the melting point lay in the range of 98 to 100 °C.

As for `CC(C)[C@H]1COC(=O)N1C(=O)[C@H](C)CC(=O)OC(C)(C)C`, the melting point lay in the range of 64 to 65 °C.

For the compound `CS(=O)(=O)Nc1cccc(Nc2nc(Oc3ccc(F)cc3)c3nc[nH]c3n2)c1`, the melting point lay in the range of 136 to 139 °C.

As for `O=C(O)C(=O)NC1CCCCCCC1`, the melting point lay within 115 to 116 °C.

Take `CC(=O)NNC(=O)c1ccc2occc2c1`: the melting point was in the range of 145 to 146 °C.

`CN1CCN(c2ccc(C(=O)NCCCCCCCCCO[N+](=O)[O-])cn2)CC1` yielded a melting point of 90 to 92 °C.

Consider `CC(=O)NC1c2ccccc2-c2[nH]c(=O)c3nccn3c21` (stereo not drawn), for which the melting point came to 330 °C.

Consider `CC(C)Nc1cccnc1N1CCN(C(=O)c2ccc(C(=O)N3CCOCC3)cc2)CC1`, for which the melting point was found to be 139 °C.

With `COc1ccc(C2CCN(C(=O)C(N)=O)CC2)cc1C=C1CCCC1`, the melting point lay within 116 to 117 °C.

In the case of `O=C(c1cccs1)N1CCc2cc(S(=O)(=O)n3cc(-c4ccccc4)[nH]c3=O)ccc21`, the melting point was in the range of 258 to 260 °C.

Regarding `COCC12CCC(O)CC1CCC1C3CCC(=O)C3(C)CCC12` (stereo not drawn), the melting point lay within 172 to 174 °C.

In turn, `COc1cc(N2CCOCC2)ccc1Nc1nc(Nc2ccc3c(c2)CCCC(=O)N3C(C)C)ncc1Cl` gave a melting point of 153 to 154 °C.

On to `Cc1nc2cc(C(=O)Nc3ccccc3)ccc2o1`, for which the melting point lay in the range of 138 to 139 °C.

For `CN(Cc1ccc(Cl)cc1)C(=O)CC12CC3CC(CC(C3)C1)C2`, the melting point lay within 75 to 76 °C.

Compound `CC(C)(C)O[C@@H]1C[C@H]2C(=O)O[C@H](C(Cl)(Cl)Cl)N2C1` came in with a melting point of 147 °C.

On to `O=c1c2c(Cl)cccc2nc(CSc2ncnc3[nH]cnc23)n1-c1ccccc1F`, for which the melting point is 244 °C.

With `O=C(c1ccccc1C(c1ccc(O)cc1)c1ccc(O)cc1)N1CCCCC1`, the melting point is 242 to 244 °C.

Compound `CCOC(=O)CCNCC(O)COc1cccc(C)c1` (stereo not drawn) gave a melting point of 57 °C.

Consider `O=C(NCc1ccccc1)c1cc2c(-c3ccccc3)n[nH]c2s1`, for which the melting point was 98 to 101 °C.

`CCCCCNC(=O)[C@@H]1CCCN1C(=O)[C@@H](N)CC` gave a melting point of 140 to 141 °C.

Take `Cc1ccc(Cn2ncc(-c3ccc(S(C)(=O)=O)cc3)c(-c3ccc(F)cc3)c2=O)s1`: the melting point is 172 to 175 °C.

For the compound `O=C1Cc2ccc3ccccc3c2OC1C(=O)c1cccc(Cl)c1` (stereo not drawn), the melting point lay in the range of 206 to 208 °C.

`COC(=O)C1=C(C(=O)OC)C2(c3ccc(Cl)cc3)CCC1O2` (stereo not drawn) had a melting point of 90 to 91 °C.

With `CCSC/C=C\c1cc(F)c2ncc(C(=O)NCc3ccc(Cl)cc3)c(O)c2c1`, the melting point was 203 to 205 °C.

`CCCOc1ccc(-c2ncc(C#N)cn2)cc1` gave a melting point of 193 to 194 °C.

`CN(C)c1c(Br)cc2c3c(cccc13)C(=O)N(O)C2=O`: the melting point lay in the range of 185 to 187 °C.

As for `NCc1cc(-c2ccccc2)no1`, the melting point came to 50 °C.

Compound `Cc1nnc2ncc(-c3ccccc3Cl)nn12` came in with a melting point of 172 to 175 °C.

The compound `CCOCCn1c(NC2CCN(CC(=O)O)CC2)nc2cccnc21` showed a melting point of 227 °C.

The values are drawn from a melting point compilation (Tetko et al.; mined from patent text by program, amines drawn as free bases though some values may be those of a salt).
